This is an account of results in US6924302B2, “Substituted triazole diamine derivatives as kinase inhibitors” (Ortho McNeil Pharmaceutical, Inc., priority 2000, dated 2005).

As usually defined, the IC50 is the concentration that inhibits the measured activity by half.

Molecules are shown by their SMILES. Read-outs that look alike come from different tables or passages of the source. Bounds are passed on as bounds.

The target in assay [1] is T1, Protein Kinase A (Bos taurus, UniProt P00517).
T1 construct: purified from bovine heart; purchased Upstate Biotech 14-114; host or cells: bovine heart
Put plainly: Kinase Selectivity Assay Protein Kinase A. It is filed as biochemical, bovine. Conditions: Kinase Selectivity, Tables 2a-2k; read-out: PKA IC50. A digest of the protocol: (§1)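 Radiometric Flashplate format: ^33P-γ-ATP transfer to immobilized biotinylated peptide, 1 h, 30° C, 1% DMSO final, enzyme in 50 mM Tris-HCl pH=8.0 + 0.1% BSA. Duplicate 8-point dilution, 100 uM down to 10 pM. IC50 from % inhibition of plate max signal versus log conc.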

The subject of assay [2] is A375 malignant melanoma. Put plainly: Inhibition of Cell Proliferation (14C-thymidine incorporation), A375. The class given is cell-based. As to conditions: Homo sapiens, A-375, A375 cell line. A digest of the protocol:
(§2)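 Scintillation counting of methyl 14C-thymidine taken up into new DNA gives the read-out. Cells (3000-8000/well) had 24 h attachment, 24 h compound treatment, then 24 h more with drug plus 0.2 uCi/well label, all at 37° C under 5% CO2.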
Background: Uptake of a labelled nucleoside into DNA is a usual measure of proliferation.

In assay [3] the test system is HeLa cervical adenocarcinoma. Put plainly: Inhibition of Cell Proliferation (14C-thymidine incorporation), HeLa. The class given is cell-based. Conditions: Homo sapiens, HeLa cell line. A digest of the protocol: as §2
Assay [4] has as its target T2, Glycogen Synthase Kinase-3 (beta isoform) (Oryctolagus cuniculus, UniProt G1T8E2).
T2 construct: purchased New England Biolabs 6040; host or cells: E. coli
Put plainly: Kinase Selectivity Assay Glycogen Synthase Kinase-3. The class given is biochemical, rabbit. In a few lines: as §1

In assay [5] the test system is PC-3 prostate adenocarcinoma. Put plainly: Inhibition of Cell Proliferation (14C-thymidine incorporation), PC-3. It is filed as cell-based. As to conditions: Homo sapiens, PC-3 cell line. How it is done:
The ability of a test compound to inhibit the proliferation of cell growth was determined by measuring incorporation of ^14C-labelled thymidine into newly synthesized DNA within the cells. This method was used on cell lines derived from carcinomas originating from several tissues such as HeLa cervical adenocarcinoma (American Type Culture Collection (ATCC), Virginia, Cat. #CCL-2), A375 malignant melanoma (ATCC CRL-1619), SK-OV-3 ovarian adenocarcinoma (ATCC HTB-77) HCT-116 colon carcinoma (CCL-247), PC-3 prostate adenocarcinoma (ATCC CRL-1435), and MDA-MB-231 (Xenogen Corp.) In this way the effect of a compound on cell growth of cells with many different phenotypes can be determined. Cells were trypsinized and counted and 3000-8000 cells were added to each well of a 96-well CytoStar tissue culture treated scintillating microplate (Amersham #RPNQ0160) in complete medium in a volume of 100 μl. Cells were incubated for 24 hours in complete medium at 37° C. in an atmosphere containing 5% CO2. Next, 1 μl of test compound in 100% DMSO was added to the wells of the plate. DMSO only was added to control wells. Cells were incubated for 24 more hours in complete medium at 37° C. in an atmosphere containing 5% CO2. Methyl ^14C-thymidine 56 mCi/mmol (NEN #NEC568 or Amersham #CFA532) was diluted in complete medium and 0.2 uCi/well was added to each well of the CytoStar plate in a volume of 20 μl. The plate was incubated for 24 hours at 37° C. plus 5% CO2 in drug plus ^14C-thymidine. The contents of the plate were discarded into a ^14C radioactive waste container by inverting the plate and the plate was washed twice with 200 μl PBS. 200 μl of PBS is added to each well. The top of the plate was sealed with a transparent plate sealer and a white plate backing sealer (Packard #6005199) was applied to the bottom of the plate. The degree of methyl ^14C-thymidine incorporation was quantified on a Packard Top Count.

Assay [6] relates to HCT-116 colon carcinoma. The experiment in a line: Inhibition of Cell Proliferation (14C-thymidine incorporation), HCT-116. The class given is cell-based. As to conditions: Homo sapiens, HCT-116 cell line. A digest of the protocol:
as §2

Assay [7] addresses T3, PDGF-R (platelet derived growth factor receptor) beta subunit kinase domain (Homo sapiens, UniProt P09619).
T3 construct: nucleotides 1874-3507 of the human PDGF-R beta subunit kinase domain; polyhistidine (N)
Put plainly: Kinase Selectivity Assay PDGF-R. It is filed as biochemical. Conditions: Kinase Selectivity, Tables 2a-2k; read-out: PDGF-R kinase IC50. A digest of the protocol: as §1

In assay [8] the target is T4, VEGF-R (vascular endothelial growth factor receptor-2) (Rattus norvegicus, UniProt O08775).
T4 construct: polyhistidine (6xHIS) (N)
T4 sequence (O08775 786-1343): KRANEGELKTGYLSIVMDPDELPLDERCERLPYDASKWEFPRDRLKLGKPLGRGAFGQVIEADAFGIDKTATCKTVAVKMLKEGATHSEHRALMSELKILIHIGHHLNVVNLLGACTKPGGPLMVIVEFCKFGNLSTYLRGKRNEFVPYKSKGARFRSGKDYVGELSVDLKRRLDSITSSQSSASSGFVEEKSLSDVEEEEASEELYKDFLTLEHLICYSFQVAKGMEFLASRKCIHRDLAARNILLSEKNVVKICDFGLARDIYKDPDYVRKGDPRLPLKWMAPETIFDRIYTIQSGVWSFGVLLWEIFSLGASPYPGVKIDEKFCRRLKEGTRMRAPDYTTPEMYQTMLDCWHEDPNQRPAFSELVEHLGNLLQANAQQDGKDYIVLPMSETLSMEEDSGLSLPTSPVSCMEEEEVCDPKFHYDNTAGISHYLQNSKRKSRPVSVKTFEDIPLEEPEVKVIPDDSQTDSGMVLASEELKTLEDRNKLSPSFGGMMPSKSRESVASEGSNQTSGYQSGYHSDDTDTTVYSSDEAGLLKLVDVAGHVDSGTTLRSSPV
The experiment in a line: VEGF-R Screening Assay. The class given is biochemical. Conditions: read-out: VEGF-R IC50.

The mark [9] stands for this setting: Kinase Selectivity, Tables 2a-2k, read-out: GSK-3 IC50.
Setting [10] is: Kinase Selectivity, Tables 2a-2k.

T3 sequence (P09619 564-1106): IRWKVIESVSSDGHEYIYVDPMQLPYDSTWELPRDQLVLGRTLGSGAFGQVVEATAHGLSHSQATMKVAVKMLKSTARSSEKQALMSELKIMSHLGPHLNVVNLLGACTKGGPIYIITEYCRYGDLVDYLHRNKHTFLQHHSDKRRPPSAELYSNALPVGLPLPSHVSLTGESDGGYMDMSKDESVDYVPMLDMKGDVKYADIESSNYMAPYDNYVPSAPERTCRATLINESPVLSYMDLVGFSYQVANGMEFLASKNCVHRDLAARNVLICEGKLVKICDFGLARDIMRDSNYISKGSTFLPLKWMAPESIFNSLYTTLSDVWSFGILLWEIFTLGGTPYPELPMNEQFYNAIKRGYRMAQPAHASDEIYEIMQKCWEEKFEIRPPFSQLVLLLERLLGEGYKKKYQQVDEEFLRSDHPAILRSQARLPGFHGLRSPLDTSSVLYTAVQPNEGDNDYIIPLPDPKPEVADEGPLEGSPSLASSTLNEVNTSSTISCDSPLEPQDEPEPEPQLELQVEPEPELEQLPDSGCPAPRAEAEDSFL
T2 sequence (G1T8E2 1-432): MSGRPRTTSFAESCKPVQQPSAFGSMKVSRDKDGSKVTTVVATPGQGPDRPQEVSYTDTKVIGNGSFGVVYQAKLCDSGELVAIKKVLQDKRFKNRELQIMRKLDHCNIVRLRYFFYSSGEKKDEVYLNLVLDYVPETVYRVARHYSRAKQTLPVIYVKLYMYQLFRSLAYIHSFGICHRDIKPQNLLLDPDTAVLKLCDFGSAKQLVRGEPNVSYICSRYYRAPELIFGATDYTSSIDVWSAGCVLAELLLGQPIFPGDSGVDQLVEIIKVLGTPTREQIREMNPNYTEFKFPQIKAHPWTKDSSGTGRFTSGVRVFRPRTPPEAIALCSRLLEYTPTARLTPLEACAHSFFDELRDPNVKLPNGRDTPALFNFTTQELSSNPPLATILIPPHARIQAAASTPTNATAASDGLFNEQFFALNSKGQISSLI

Take `Nc1nc(Nc2ccc(S(N)(=O)=O)cc2)nn1C(=O)c1c(F)cccc1F` [Cpd 1, 4-[[5-amino-1-(2,6-difluorobenzoyl)-1H-1,2,4-triazol-3-yl]amino]-benzenesulfonamide]: the IC50 in assay [1] was over 100000 nM; in assay [2], 447 nM; in assay [3] it was 284 nM; in assay [4], 41 nM; in assay [5], 119 nM; in assay [6] it was 254 nM.
`Nc1nc(Nc2ccc(S(N)(=O)=O)cc2)nn1C(=O)c1cccs1` [Cpd 14, 4-[[5-amino-1-(2-thienylcarbonyl)-1H-1,2,4-triazol-3-yl]amino]-benzenesulfonamide]: the IC50 in assay [1] came to 5430 nM; in assay [2], 26500 nM; in assay [3] it was 550 nM; in assay [4] (setting [9]), 3 nM; in assay [7], 189 nM; in assay [5], 157 nM. The IC50 turned out to be 1940 nM in assay [6], 26 nM in assay [8] (setting [10]) and 26.7 nM in assay [8] (Table 1).
On to `Nc1nc(Nc2ccc(S(N)(=O)=O)cc2)nn1C(=O)c1sccc1F` [Cpd 16, 4-[[5-amino-1-[(3-fluoro-2-thienyl)carbonyl]-1H-1,2,4-triazol-3-yl]amino]-benzenesulfonamide], for which the IC50 was 942 nM in assay [2]; 263 nM in assay [3]; 4 nM in assay [4] (setting [9]); 100 nM in assay [7]; 368 nM in assay [5]; 213 nM in assay [6]. Besides, the IC50 in assay [8] (setting [10]) and in assay [8] (Table 1) was 13.7 nM each time.
Turning to `Nc1nc(Nc2ccc(S(N)(=O)=O)cc2)nn1C(=O)c1sccc1Cl` [Cpd 17, 4-[[5-amino-1-[(3-chloro-2-thienyl)carbonyl]-1H-1,2,4-triazol-3-yl]amino]-benzenesulfonamide], the IC50 in assay [2] was 4970 nM; in assay [3] it was 215 nM; in assay [4] (setting [9]) it was 9 nM; in assay [7] it was 81 nM; in assay [5], 294 nM; in assay [6], 309 nM. For the same compound, the IC50 in assay [8] (setting [10]) and in assay [8] (Table 1) was 27 nM each time.
Take `Nc1nc(Nc2ccc(S(=O)(=O)N3CCCCC3)cc2)nn1C(=O)c1cccs1` [Cpd 23, N^3-[4-(1-piperidinylsulfonyl)phenyl]-1-(2-thienylcarbonyl)-1H-1,2,4-triazole-3,5-diamine]: the IC50 in assay [1] is over 100000 nM; in assay [2] it was 424 nM; in assay [3], 1180 nM; in assay [4] (setting [9]), 16 nM; in assay [7] it was 629 nM; in assay [5], 859 nM. Moreover, the IC50 in assay [6] was 376 nM; in assay [8] (setting [10]), 35 nM; in assay [8] (Table 1) it was 35.3 nM.
Turning to `Nc1nc(Nc2ccc(S(N)(=O)=O)cc2)nn1C(=O)c1ccsc1` [Cpd 30, 4-[[5-amino-1-(3-thienylcarbonyl)-1H-1,2,4-triazol-3-yl]amino]-benzenesulfonamide], the IC50 amounted to 8240 nM in assay [2]; 215 nM in assay [3]; 14 nM in assay [4] (setting [9]); 392 nM in assay [7]; 951 nM in assay [5]; 1930 nM in assay [6]. In addition, the IC50 in assay [8] (setting [10]) and in assay [8] (Table 1) was 40.6 nM each time.
As to `CCc1ccc(C(=O)n2nc(Nc3ccc(S(N)(=O)=O)cc3)nc2N)s1` [Cpd 32, 4-[[5-amino-1-[(5-ethyl-2-thienyl)carbonyl]-1H-1,2,4-triazol-3-yl]amino]-benzenesulfonamide], the 50% inhibitory concentration (IC50) in assay [1] was over 100000 nM; in assay [3], 71 nM; in assay [4] (setting [9]), 3 nM; in assay [7], 74 nM; in assay [5], 30 nM; in assay [6] it was 26 nM. Besides, the IC50 amounted to 22 nM in assay [8] (setting [10]) and 21.9 nM in assay [8] (Table 1).
For the compound `Nc1nc(Nc2ccc(S(N)(=O)=O)cc2)nn1C(=O)C1CCCC1` [Cpd 38, 4-[[5-amino-1-(cyclopentylcarbonyl)-1H-1,2,4-triazol-3-yl]amino]-benzenesulfonamide], the IC50 was over 100000 nM in assay [1]; 4560 nM in assay [3]; 122 nM in assay [4] (setting [9]); 6370 nM in assay [7]; 2750 nM in assay [5]; 2270 nM in assay [6].
Take `Nc1nc(Nc2ccc(S(N)(=O)=O)cc2)nn1C(=O)C1CCCCC1` [Cpd 39, 4-[[5-amino-1-(cyclohexylcarbonyl)-1H-1,2,4-triazol-3-yl]amino]-benzenesulfonamide]: the IC50 in assay [1] was over 100000 nM; in assay [3], 270 nM; in assay [4] (setting [9]), 127 nM; in assay [7], 3980 nM; in assay [5] it was 625 nM; in assay [6] it was 1410 nM.
As to `CC(C)(C)c1ccc(C(=O)n2nc(Nc3ccc(S(N)(=O)=O)cc3)nc2N)s1` [Cpd 51, 4-[[5-amino-1-[[5-(1,1-dimethylethyl)-2-thienyl]carbonyl]-1H-1,2,4-triazol-3-yl]amino]-benzenesulfonamide], the IC50 in assay [1] was 911 nM; in assay [2], 333 nM; in assay [3], 220 nM; in assay [4] (setting [9]), 20 nM; in assay [7], 199 nM; in assay [5], 57 nM. Moreover, the IC50 in assay [8] (setting [10]) and in assay [8] (Table 1) was 19 nM in each case.
For the compound `CC(O)c1ccc(F)c(C(=O)n2nc(Nc3ccc(S(N)(=O)=O)cc3)nc2N)c1F` (stereo not shown) [Cpd 58, 4-[[5-amino-1-[2,6-difluoro-3-(1-hydroxyethyl)benzoyl]-1H-1,2,4-triazol-3-yl]amino]-benzenesulfonamide], the IC50 was over 100000 nM in assay [1]; 981 nM in assay [2]; 186 nM in assay [3]; 15 nM in assay [4] (setting [9]); 8530 nM in assay [7]; 362 nM in assay [5]. The values for the IC50 in assay [6], in assay [8] (setting [10]) and in assay [8] (Table 1) were 1270 nM, 419 nM and 420 nM, respectively.
Consider `Cc1ccc(F)c(C(=O)n2nc(Nc3ccc(S(N)(=O)=O)cc3)nc2N)c1Cl` [Cpd 69, 4-[[5-amino-1-(2-chloro-6-fluoro-3-methylbenzoyl)-1H-1,2,4-triazol-3-yl]amino]-benzenesulfonamide], for which the IC50 in assay [1] stood at 46600 nM; in assay [2] it was 441 nM; in assay [3] it was 218 nM; in assay [4] (setting [9]), 147 nM; in assay [7], 100 nM; in assay [5], 8 nM. Also, the IC50 in assay [6] stood at 1720 nM.
As to `Nc1nc(Nc2ccc(S(N)(=O)=O)cc2)nn1C(=O)c1c(F)cccc1Cl` [Cpd 70, 4-[[5-amino-1-(2-chloro-6-fluorobenzoyl)-1H-1,2,4-triazol-3-yl]amino]-benzenesulfonamide], the IC50 came out at 34200 nM in assay [1]; 1100 nM in assay [2]; 196 nM in assay [3]; 220 nM in assay [4] (setting [9]); 16200 nM in assay [7]; 11 nM in assay [5]. The compound further registered an IC50 in assay [6] of 1580 nM.
On to `CNS(=O)(=O)c1ccc(Nc2nc(N)n(C(=O)c3c(F)ccc(C)c3F)n2)cc1` [Cpd 81, 4-[[5-amino-1-(2,6-difluoro-3-methylbenzoyl)-1H-1,2,4-triazol-3-yl]amino]-N-methyl-benzenesulfonamide], for which the IC50 was over 100000 nM in assay [1]; 1770 nM in assay [2]; 189 nM in assay [3]; 49 nM in assay [4] (setting [9]); 7760 nM in assay [7]; 25 nM in assay [5]. This compound also had an IC50 in assay [6] of 778 nM.
